The assay has as its system Chronic constriction injury (CCl), a model of neuropathic pain. The experiment in a line: In vivo assessment of analgesic effect against neuropathic pain (Bennett model, chronic constriction injury; tactile allodynia by von Frey filaments). The note with it: Rattus norvegicus, po, 1 h; male Sprague Dawley rats, CCI; 10 mg/kg orally; mechanical allodynia 60 minutes following administration; percentage of maximum possible effect from log g PWT; read-out: % MPE. How it is done: Animals were prepared for testing, by use of a surgical procedure that induces neuropathic pain in one paw. IACUC guidelines for rodent survival surgery were followed. All surgical procedures were conducted on a clean, uncluttered surgical station. The area was wiped with a 70% ethanol solution before and after use. All instruments were sterilized by either autoclave or chemical sterilant (such as 2% glutaraldehyde>10 hours). Surgeons wore sterile gloves (for the initial procedure), clean lab coat or scrubs, hairnet or cap, and a half-mask respirator (when not working under a hood). Surgeons thoroughly washed their hands prior to donning sterile gloves. Gloves were disinfected in-between animals by cleansing with povidone iodine, chlorhexidine or 70% alcohol for at least 30 seconds. If multiple surgeries were performed, the instruments were cleaned and sterilized between procedures with hot glass beads (>10 seconds). To prevent thermal or chemical burns, the instruments were cooled by rinsing in sterile saline before use. Male, Sprague Dawley® rats, 175-200 g were used for surgeries. To minimize post-operative dehydration/maintain blood volume during the surgery, warmed sterile saline or Lactate Ringers solution at 10-15 mL/kg was administered subcutaneously immediately before or after surgery. This facilitated better renal function and presumably anesthesia product excretion post surgery. For all surgical procedures, anesthesia was induced with 4-5% isoflurane. Anesthesia was maintained during surgery with 1-3% isoflurane. Following induction, the surgical site was carefully shaved and the exposed area was aseptically prepared with povidone-iodine scrub solution and 70% ethanol 2-3 times. Chronic constriction injury (CCl), a model of neuropathic pain, was produced by following the method of Bennett and Xie (Bennett, G, et al. Pain, 1988, 33, 87-107). After site sterilization and anesthetic procedures outline above were completed, a 1.5 cm incision was made at the mid-thigh level to expose the biceps femoris and gluteous superficialis (right side), which were then separated by blunt dissection. The common sciatic nerve was exposed, isolated, and loosely ligated by four 5-0 chromic gut ligatures with <1 mm spacing between each. The surgical site was closed in layers—muscle was closed with 6.0 absorbable sutures, and the skin closed with wound clips. Animals were allowed to recover on a warming plate and were returned to their home cages when fully ambulatory. Animals were not be used for testing until at least 10 days following surgery. To measure mechanical sensitivity, tactile allodynia was measured using calibrated von Frey filaments (Stoelting, Wood Dale, Ill.) as described by Chaplan et al. (Chaplan S., et al. J of Neuroscience Methods 1994, 53, 55-63). Filament strengths used were: 0.4, 0.6, 1.0, 2, 4, 6, 8, and 15 g. Rats were placed into inverted individual plastic containers (20×12.5×20 cm) on top of a suspended wire mesh grid, and acclimated to the test chambers for at least 20 minutes. Filaments were applied perpendicular to the mid-plantar paw surface with enough force to cause slight buckling and held in place for 6-8 seconds. Positive responses included an abrupt withdrawal of the paw from the stimulus or flinching behavior immediately following removal of the stimulus. The maximum force applied was 15 g. The 50% paw withdrawal threshold (PWT) was calculated in grams (g) using the up-down method of Dixon (Dixon W. Ann Rev Pharmacol Toxicol 1980, 20, 441-462). […] All compounds were orally administered in at a dose of 10 mg/kg in 10% dimethyl sulfoxide/polyethylene glycol at a volume of 2.0 mL/kg, and mechanical allodynia was determined 60 minutes following compound administration. […]
As to `O=S(=O)(c1cccc(C(F)(F)F)c1)N1CCN2C[C@H](Oc3cnc(C4CC4)cn3)C[C@H]2C1` [Example 21, (7R,8aS)-7-[(5-cyclopropylpyrazin-2-yl)oxy]-2-{[3-(trifluoromethyl)phenyl]-sulfonyl}octahydropyrrolo[1,2-a]pyrazine], the inhibition in vivo at 10 mg/kg is 43%.
The same measure for `O=S(=O)(c1ccc(C(F)(F)F)cc1)N1CCN2C[C@H](Oc3cnc(C4CC4)cn3)C[C@H]2C1` [Example 25, (7R,8aS)-7-[(5-cyclopropylpyrazin-2-yl)oxy]-2-{[4-(trifluoromethyl)-phenyl]sulfonyl}octahydropyrrolo[1,2-a]pyrazine]: 42%; for `O=S(=O)(c1cccc(C(F)(F)F)c1)N1CCN2C[C@H](Oc3ccc(C4CC4)nn3)C[C@H]2C1` [Example 44, (7R,8aS)-7-[(6-cyclopropylpyridazin-3-yl)oxy]-2-{[3-(trifluoromethyl)-phenyl]sulfonyl}octahydropyrrolo[1,2-a]pyrazine]: 40%.
With `O=S(=O)(c1cccc(C(F)(F)F)c1)N1CCN2C[C@@H](Oc3cnc(C4CC4)cn3)C[C@H]2C1` [Example 49, (7S,8aS)-7-[(5-cyclopropylpyrazin-2-yl)oxy]-2-{[3-(trifluoromethyl)-phenyl]sulfonyl}octahydropyrrolo[1,2-a]pyrazine], the inhibition in vivo at 10 mg/kg worked out at 19%.
As to `O=S(=O)(c1ccc(C(F)(F)F)cc1)N1CCN2C[C@@H](Oc3cnc(C4CC4)cn3)C[C@H]2C1` [Example 50, (7S,8aS)-7-[(5-cyclopropylpyrazin-2-yl)oxy]-2-{[4-(trifluoromethyl)phenyl]-sulfonyl}octahydropyrrolo[1,2-a]pyrazine], the inhibition in vivo at 10 mg/kg came to 25%.
For `O=S(=O)(c1cc(F)cc(C(F)(F)F)c1)N1CCN2C[C@H](Oc3cnc(C4CC4)cn3)C[C@H]2C1` [Example 51, (7R,8aS)-7-[(5-cyclopropylpyrazin-2-yl)oxy]-2-{[3-fluoro-5-(trifluoromethyl)phenyl]sulfonyl}octahydropyrrolo[1,2-a]pyrazine], the inhibition in vivo at 10 mg/kg turned out to be 32%.
The same measure for `O=S(=O)(c1ccc(F)c(C(F)(F)F)c1)N1CCN2C[C@H](Oc3cnc(C4CC4)cn3)C[C@H]2C1` [Example 52, (7R,8aS)-7-[(5-cyclopropylpyrazin-2-yl)oxy]-2-{[4-fluoro-3-(trifluoromethyl)phenyl]sulfonyl}octahydropyrrolo[1,2-a]pyrazine]: 38%.
Turning to `O=S(=O)(c1ccc(C(F)(F)F)cc1)N1CCN2C[C@@H](Oc3cnc(C4CC4)cn3)C[C@@H]2C1` [Example 54, (7S,8aR)-7-[(5-cyclopropylpyrazin-2-yl)oxy]-2-{[4-(trifluoromethyl)phenyl]-sulfonyl}octahydropyrrolo[1,2-a]pyrazine], the inhibition in vivo at 10 mg/kg was determined as 34%.
On to `O=S(=O)(c1ccc(F)cc1F)N1CCN2C[C@H](Oc3cnc(C4CC4)cn3)C[C@H]2C1` [Example 62, (7R,8aS)-7-[(5-cyclopropylpyrazin-2-yl)oxy]-2-[(2,4-difluorophenyl)-sulfonyl]octahydropyrrolo[1,2-a]pyrazine], for which the inhibition in vivo at 10 mg/kg was 29%.
With `N#Cc1cc(C(F)(F)F)cc(S(=O)(=O)N2CCN3C[C@H](Oc4cnc(C5CC5)cn4)C[C@H]3C2)c1` [Example 64, 3-{[(7R,8aS)-7-[(5-cyclopropylpyrazin-2-yl)oxy]hexahydropyrrolo[1,2-a]-pyrazin-2(1H)-yl]sulfonyl}-5-(trifluoromethyl)benzonitrile], the inhibition in vivo at 10 mg/kg amounted to 37%.
Turning to `O=S(=O)(c1ccc(C(F)(F)F)cn1)N1CCN2C[C@H](Oc3cnc(C4CC4)cn3)C[C@H]2C1` [Example 67, (7R,8aS)-7-[(5-cyclopropylpyrazin-2-yl)oxy]-2-{[5-(trifluoromethyl)pyridin-2-yl]sulfonyl}octahydropyrrolo[1,2-a]pyrazine], the inhibition in vivo at 10 mg/kg was found to be 5%.
For the compound `N#Cc1ccc(O[C@@H]2C[C@H]3CN(S(=O)(=O)c4cccc(C(F)(F)F)c4)CCN3C2)cn1` [Example 86, 5-{[(7R,8aS)-2-{[3-(trifluoromethyl)phenyl]sulfonyl}octahydropyrrolo[1,2-a]pyrazin-7-yl]oxy}pyridine-2-carbonitrile], the inhibition in vivo at 10 mg/kg was found to be 0%.
